From US10047071B1, “Dihydropyrimidinone derivatives” (KING SAUD UNIVERSITY, priority 2018, dated 2018)

Structure (SMILES)	melting point [°C]
COc1ccccc1C1NC(=O)NC=C1C(=O)c1ccc(-n2ccnc2)cc1 (centres unmarked) [Compound 7, 5-[4-(1H-imidazol-1-yl)benzoyl]-4-(2-methoxyphenyl)-3,4-dihydropyrimidin-2(1H)-one]	140 to 142
O=C1NC=C(C(=O)c2ccc(-n3ccnc3)cc2)C(c2cccc(O)c2)N1 (centres unmarked) [Compound 9, 4-(3-hydroxyphenyl)-5-[4-(1H-imidazol-1-yl)benzoyl]-3,4-dihydropyrimidin-2(1H)-one]	190 to 192
COc1cc(C2NC(=O)NC=C2C(=O)c2ccc(-n3ccnc3)cc2)cc(OC)c1OC (centres unmarked) [Compound 13, 5-[4-(1H-imidazol-1-yl)benzoyl]-4-(3,4,5-trimethoxyphenyl)-3,4-dihydropyrimidin-2(1H)-one]	128 to 130
O=C1NC=C(C(=O)c2ccc(-n3ccnc3)cc2)C(c2ccc([N+](=O)[O-])cc2)N1 (centres unmarked) [Compound 3, 5-[4-(1H-imidazol-1-yl)benzoyl]-4-(4-nitrophenyl)-3,4-dihydropyrimidin-2(1H)-one]	158 to 160
COc1cc(OC)c(C2NC(=O)NC=C2C(=O)c2ccc(-n3ccnc3)cc2)cc1OC (centres unmarked) [Compound 11, 5-[4-(1H-imidazol-1-yl)benzoyl]-4-(2,4,5-trimethoxyphenyl)-3,4-dihydropyrimidin-2(1H)-one]	135 to 137
O=C1NC=C(C(=O)c2ccc(-n3ccnc3)cc2)C(c2ccccc2)N1 (centres unmarked) [Compound 1, 5-[4-(1H-imidazol-1-yl)benzoyl]-4-phenyl-3,4-dihydropyrimidin-2(1H)-one]	130 to 132
O=C1NC=C(C(=O)c2ccc(-n3ccnc3)cc2)C(c2ccccc2[N+](=O)[O-])N1 (centres unmarked) [Compound 2, 5-[4-(1H-imidazol-1-yl)benzoyl]-4-(2-nitrophenyl)-3,4-dihydropyrimidin-2(1H)-one]	155 to 157
O=C1NC=C(C(=O)c2ccc(-n3ccnc3)cc2)C(c2cccc([N+](=O)[O-])c2)N1 (centres unmarked) [Compound 4, 5-[4-(1H-imidazol-1-yl)benzoyl]-4-(3-nitrophenyl)-3,4-dihydropyrimidin-2(1H)-one]	160 to 162
COc1ccc(C2NC(=O)NC=C2C(=O)c2ccc(-n3ccnc3)cc2)cc1OC (centres unmarked) [Compound 15, 5-[4-(1H-imidazol-1-yl)benzoyl]-4-(3,4-dimethoxyphenyl)-3,4-dihydropyrimidin-2(1H)-one]	136 to 138
O=C1NC=C(C(=O)c2ccc(-n3ccnc3)cc2)C(c2ccc(Cl)cc2)N1 (centres unmarked) [Compound 5, 4-(4-chlorophenyl)-5-[4-(1H-imidazol-1-yl)benzoyl]-3,4-dihydropyrimidin-2(1H)-one]	180 to 182
COc1cccc(C2NC(=O)NC=C2C(=O)c2ccc(-n3ccnc3)cc2)c1 (centres unmarked) [Compound 10, 5-[4-(1H-imidazol-1-yl)benzoyl]-4-(3-methoxyphenyl)-3,4-dihydropyrimidin-2(1H)-one]	125 to 127
COc1cc(OC)c(C2NC(=O)NC=C2C(=O)c2ccc(-n3ccnc3)cc2)c(OC)c1 (centres unmarked) [Compound 14, 5-[4-(1H-imidazol-1-yl)benzoyl]-4-(2,4,6-trimethoxyphenyl)-3,4-dihydropyrimidin-2(1H)-one]	130 to 132
O=C1NC=C(C(=O)c2ccc(-n3ccnc3)cc2)C(c2ccc(Cl)cc2Cl)N1 (centres unmarked) [Compound 6, 4-(2,4-dichlorophenyl)-5-[4-(1H-imidazol-1-yl)benzoyl]-3,4-dihydropyrimidin-2(1H)-one]	138 to 140
COc1ccc(C2NC(=O)NC=C2C(=O)c2ccc(-n3ccnc3)cc2)c(OC)c1OC (centres unmarked) [Compound 12, 5-[4-(1H-imidazol-1-yl)benzoyl]-4-(2,3,4-trimethoxyphenyl)-3,4-dihydropyrimidin-2(1H)-one]	138 to 140
